The values that follow come from article PMC7164518 (Science (New York, N.y.), 2020).

The test system of one data set is SARS-CoV. The settings on record: various cell lines; cited from earlier work.
Data set [1] can be described thus: In vitro kinetic plasma solubility. Type of data set: physicochemical. To be noted: plasma or biological fluid, kinetic from dmso stock.
For another data set, the system named is enteroviruses. To be noted: various cell lines; cited from earlier work.
The test system of data set [2] is Middle East respiratory syndrome–coronavirus (MERS-CoV). To be noted: Huh7 cells; read-out: EC50 against MERS-CoV; cited from earlier work.
Another data set is described as follows: Thermodynamic solubility. To be noted: thermodynamic from solid. Type of data set: physicochemical.
The nature of data set [3]: Binding to mouse plasma protein. Type of data set: in vitro ADME.
Data set [4] can be described thus: Pharmacokinetics in CD-1 mice, subcutaneous route. Type of data set: in vivo. The settings on record: for half-life / Cmax / MRT: plasma.
The nature of data set [5]: in vitro. To be noted: mouse, microsomes.
Data set [6] in a line: in vitro. The settings on record: human, microsomes.
For data set [7] the following is noted: human microsomes.
Another data set in a line: in vivo. The settings on record: CD-1, mouse, lung, inhaled, 3 mg kg^−1.
The target of the next data set is MERS-CoV M^pro (Middle East respiratory syndrome-related coronavirus, UniProt K9N7C7). Nature of the data set: biochemical.
MERS-CoV M^pro, sequence (K9N7C7 3248-3553 limits assumed): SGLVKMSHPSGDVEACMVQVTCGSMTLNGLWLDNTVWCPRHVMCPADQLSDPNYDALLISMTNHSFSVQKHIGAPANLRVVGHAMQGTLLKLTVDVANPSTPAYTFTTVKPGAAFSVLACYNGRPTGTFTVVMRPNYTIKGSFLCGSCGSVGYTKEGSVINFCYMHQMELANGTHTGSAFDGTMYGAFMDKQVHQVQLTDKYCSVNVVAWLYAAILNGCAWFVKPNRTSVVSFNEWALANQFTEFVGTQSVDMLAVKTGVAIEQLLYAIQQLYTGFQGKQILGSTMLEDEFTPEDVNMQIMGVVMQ
Another data set deals with SARS-CoV replicon. Put plainly: microbe, parasite or virus in culture. Format: cell-based. To be noted: Severe acute respiratory syndrome coronavirus, read-out: EC50 inhibition of RNA replication in SARS-CoV replicon.
A short description of data set [8]: Binding to human plasma proteins. Type of data set: in vitro ADME.
For the next data set, the system named is SARS-CoV-2. Put plainly: SARS-CoV-2 replication in human Calu-3 lung cells (viral RNA by qPCR). Format: cell-based. To be noted: MOI 0.05. The protocol: (A) Calu-3 cells were infected with SARS-CoV-2 using a multiplicity of infection (MOI) of 0.05. […] DMSO was used as vehicle control (black bar). Total RNA was isolated from cell lysates, and viral RNA content was analyzed by quantitative polymerase chain reaction. Data are means ± SD of two biological experiments with two technical replicates each.

For a further data set, the target named is SARS-CoV-2 M^pro (Severe acute respiratory syndrome coronavirus 2, UniProt P0DTD1). Put plainly: Inhibition of purified recombinant SARS-CoV-2 Mpro. Type of data set: biochemical. The settings on record: 14b relative to 13b.

Values after ≈ are worked out from the molar mass of the structure shown. Read-outs that look alike come from different tables or passages of the source.

Consider `O=C(/C=C/c1ccccc1)N[C@@H](CC1CCCCC1)C(=O)N[C@@H](C[C@@H]1CCNC1=O)C(=O)C(=O)NCc1ccccc1` [Compound 11r, reference compound], for which the “EC50 values against SARS-CoV” value in the data set with SARS-CoV is listed as “low-μM”. The kinetic solubility in data set [1] was found to be 6 µM (≈ 3.44 µg/mL). For the same molecule, the “EC50 values against a whole range of enteroviruses” value with enteroviruses is recorded as “low-μM”. Also, in data set [2], the EC50 was 0.0004 µM. In the data set “Thermodynamic solubility”, this molecule displayed a thermodynamic solubility of 41 µM (≈ 23.5 µg/mL). In addition, the “binding to mouse plasma protein” value in data set [3] is 99%. The same molecule gave a half-life in [4] (CD-1, mouse, mice) of 0.3 h.

Molecule `CC(C)(C)OC(=O)Nc1cccn([C@@H](CC2CCCCC2)C(=O)N[C@@H](C[C@@H]2CCNC2=O)C(=O)C(=O)NC2CC2)c1=O` [Compound 13a, tert-butyl (1-((S)-3-cyclohexyl-1-(((S)-4-(cyclopropylamino)-3,4-dioxo-1-((S)-2-oxopyrrolidin-3-yl)butan-2-yl)amino)-1-oxopropan-2-yl)-2-oxo-1,2-dihydropyridin-3-yl)carbamate] had a kinetic solubility in [1] of 112 µM (≈ 65.6 µg/mL). Moreover, in the data set “Thermodynamic solubility”, the solubility (thermodynamic) is 530 µM (≈ 310 µg/mL). Further, the figures for the microsomal CLint in “in vitro [5]” and in “in vitro [6]” were 32 µL/min/mg and 21 µL/min/mg, respectively. Besides, the “residual compound remaining metabolically stable after 30 min” value in data set [7] was roughly 60%. Moreover, the “binding to mouse plasma protein” value in [3] came to 97%. This molecule also gave a half-life in data set [4] (CD-1, mouse, mice) of 1 h. The “time compound stayed in plasma” value in [4] (CD-1 mice, 20 mg/kg) is reported as “up to 4 hours”. In data set [4] (CD-1 mice, 20 mg/kg), the “time compound was excreted via urine” value was “up to 24 hours”. In addition, the concentration at 24 hours in [4] (mouse, bronchio-alveolar lavage fluid (BALF), sc, CD-1 mice, 20 mg/kg, read-out: concentration in bronchio-alveolar lavage fluid (BALF) at 24 hours) amounted to 52.7 ng/mL; in [4] (mouse, lung, sc, CD-1 mice, 20 mg/kg, read-out: concentration in lung tissue at 24 hours), 135 ng/g. For the same molecule, the Cmax in [4] (mouse, sc, CD-1 mice, 20 mg/kg, read-out: maximum plasma concentration (Cmax)) amounted to 334 ng/mL. Further, in data set [4] (mouse, sc, CD-1 mice, 20 mg/kg, read-out: mean residence time), the MRT was roughly 1.6 h.

Molecule `CC(C)(C)OC(=O)Nc1cccn([C@@H](CC2CC2)C(=O)N[C@@H](C[C@@H]2CCNC2=O)C(=O)C(=O)NCc2ccccc2)c1=O` [Compound 13b] yielded a concentration at 24 hours in “in vivo” of 33 ng/g. The IC50 against MERS-CoV M^pro was 0.58 ± 0.22 µM. Also, the EC50 in the data set with SARS-CoV replicon was 1.75 ± 0.25 µM; with SARS-CoV-2 (Severe acute respiratory syndrome coronavirus 2, Calu-3, viral RNA by qPCR, read-out: EC50 in human Calu-3 cells infected with SARS-CoV-2) it was 4 to 5 µM. The “binding to human plasma proteins” value in data set [8] was found to be 90%. For the same molecule, the “Cmax as percent of the Cmax detected for 13a” value in [4] (13b 3 mg kg^−1 vs 13a 20 mg/kg) is listed as “around 37%”. The concentration at 4 hours in data set [4] (mouse, lung, sc, CD-1 mice, 3 mg kg^−1, 4 hours, read-out: lung tissue level after 4 hours) was roughly 13 ng/g. In data set [4] (mouse, sc, CD-1 mice, 3 mg kg^−1), the half-life was 1.8 h. Moreover, the Cmax in data set [4] (mouse, sc, CD-1 mice, 3 mg kg^−1, read-out: maximum plasma concentration (Cmax)) is 126 ng/mL. Also, the MRT in data set [4] (mouse, sc, CD-1 mice, 3 mg kg^−1, read-out: mean residence time) is 2.7 h.

For the molecule `Nc1cccn([C@@H](CC2CC2)C(=O)N[C@@H](C[C@@H]2CCNC2=O)C(=O)C(=O)NCc2ccccc2)c1=O` [Compound 14b], in the data set on SARS-CoV-2 (5, 10, 20 or 40 μM), the “activity in human Calu-3 cells infected with SARS-CoV-2” value was “almost inactive”. Moreover, the “weakening of inhibitory potency on removing the Boc group (factor)” value on SARS-CoV-2 M^pro is ~ 2.
